According to the CheMixHub viscosity set:

Test: xn = mol fraction of the nth substance listed

C1COCO1 + CC#N
viscosity [mPa·s], 101 kPa
Conditions | x2 = 0.167 | x2 = 0.3109 | x2 = 0.4361 | x2 = 0.5461 | x2 = 0.6435 | x2 = 0.7302 | x2 = 0.8081 | x2 = 0.8783 | x2 = 0.942
298.15 K | 0.5233 | 0.4737 | 0.436 | 0.4046 | 0.3783 | 0.3591 | 0.3444 | 0.338 | 0.3366
308.15 K | 0.4618 | 0.4235 | 0.3913 | 0.3646 | 0.3419 | 0.3251 | 0.3134 | 0.3077 | 0.307
318.15 K | 0.4132 | 0.3791 | 0.3502 | 0.3263 | 0.3065 | 0.291 | 0.2817 | 0.278 | 0.2797

CC(=O)c1ccccc1 + CC#N
308.15 K, 101 kPa
Conditions | viscosity [mPa·s]
x1 = 0.048 | 0.34
x1 = 0.1023 | 0.3845
x1 = 0.1626 | 0.4361
x1 = 0.2321 | 0.4959
x1 = 0.3113 | 0.5746
x1 = 0.4024 | 0.6736
x1 = 0.5125 | 0.8002
x1 = 0.6426 | 0.9514
x1 = 0.8018 | 1.144
x1 = 0.9135 | 1.284

C1COCO1 + CC(=O)O
298.15 K, 101 kPa
Conditions | viscosity [mPa·s]
x1 = 0.0826 | 1.097
x1 = 0.1685 | 1.076
x1 = 0.2578 | 1.042
x1 = 0.3508 | 0.996
x1 = 0.4477 | 0.9442
x1 = 0.5487 | 0.883
x1 = 0.6541 | 0.8162
x1 = 0.7643 | 0.7415
x1 = 0.8795 | 0.6626

CC(=O)c1ccccc1 + CC(=O)O
298.15 K, 101 kPa
Conditions | viscosity [mPa·s]
x2 = 0.0998 | 1.741
x2 = 0.2107 | 1.754
x2 = 0.2935 | 1.742
x2 = 0.4253 | 1.703
x2 = 0.4885 | 1.668
x2 = 0.6003 | 1.598
x2 = 0.6998 | 1.524
x2 = 0.8002 | 1.42
x2 = 0.9013 | 1.293

ClC(Cl)C(Cl)(Cl)Cl + CC(=O)c1ccccc1
298.15 K, 101 kPa
Conditions | viscosity [mPa·s]
x2 = 0.1163 | 2.34
x2 = 0.3295 | 2.36
x2 = 0.5338 | 2.26
x2 = 0.7313 | 2.03
x2 = 0.8974 | 1.8

C1COCO1 + CC(C)(C)O
303.15 K, 101 kPa
Conditions | viscosity [mPa·s]
x1 = 0.1001 | 1.967
x1 = 0.2001 | 1.468
x1 = 0.3001 | 1.102
x1 = 0.4001 | 0.8793
x1 = 0.5001 | 0.7657
x1 = 0.6001 | 0.6755
x1 = 0.7001 | 0.6067
x1 = 0.8001 | 0.5731
x1 = 0.9001 | 0.566

CC(=O)c1ccccc1 + CC(C)(C)O
viscosity [mPa·s], 101 kPa
Conditions | x2 = 0.1188 | x2 = 0.2314 | x2 = 0.3395 | x2 = 0.4286 | x2 = 0.545 | x2 = 0.6429 | x2 = 0.7373 | x2 = 0.8283 | x2 = 0.9142
298.15 K | 2.081 | 2.456 | 2.8 | 3.08 | 3.42 | 3.651 | 3.856 | 4.034 | 4.208
303.15 K | 1.794 | 2.055 | 2.284 | 2.473 | 2.712 | 2.874 | 3.004 | 3.127 | 3.247
308.15 K | 1.573 | 1.743 | 1.895 | 2.023 | 2.185 | 2.29 | 2.378 | 2.468 | 2.549

CN(C)P(=O)(N(C)C)N(C)C + CC(C)(C)O
303.15 K, 101.3 kPa
Conditions | viscosity [mPa·s]
x1 = 0.0784 | 3.704
x1 = 0.103 | 3.722
x1 = 0.1988 | 3.624
x1 = 0.2201 | 3.547
x1 = 0.3076 | 3.4
x1 = 0.4051 | 3.263
x1 = 0.4476 | 3.23
x1 = 0.5093 | 3.185
x1 = 0.6062 | 3.118
x1 = 0.7077 | 3.068
x1 = 0.8008 | 3.02
x1 = 0.9029 | 2.973

C=CCN(CC=C)C(=O)C(Cl)Cl + CC(C)=O
viscosity [mPa·s], 101 kPa
Conditions | x1 = 0.006314 | x1 = 0.01189 | x1 = 0.01711 | x1 = 0.02832 | x1 = 0.03651 | x1 = 0.04464 | x1 = 0.05006 | x1 = 0.05495
293.15 K | 0.3429 | 0.3501 | 0.3617 | 0.3719 | 0.3878 | 0.3997 | 0.4079 | 0.4157
298.15 K | 0.3335 | 0.3358 | 0.3476 | 0.3589 | 0.3712 | 0.3822 | 0.3905 | 0.3989
303.15 K | 0.3189 | 0.3227 | 0.3309 | 0.3424 | 0.3542 | 0.3646 | 0.3722 | 0.3793
308.15 K | 0.3041 | 0.3086 | 0.3185 | 0.3268 | 0.3372 | 0.3478 | 0.3553 | 0.3628
313.15 K | 0.2944 | 0.296 | 0.3075 | 0.3129 | 0.3247 | 0.3335 | 0.3423 | 0.3443

ClC(Cl)C(Cl)(Cl)Cl + CC(C)=O
298.15 K, 101 kPa
Conditions | viscosity [mPa·s]
x2 = 0.1476 | 1.93
x2 = 0.3178 | 1.52
x2 = 0.5103 | 1.12
x2 = 0.7037 | 0.695
x2 = 0.9068 | 0.417

CCCCCCCCC + CC(C)CC(C)(C)C
298.15 K, 101 kPa
Conditions | viscosity [mPa·s]
x2 = 0.07718 | 0.6409
x2 = 0.2128 | 0.6118
x2 = 0.3294 | 0.5969
x2 = 0.4097 | 0.5806
x2 = 0.5252 | 0.5564
x2 = 0.6958 | 0.5351
x2 = 0.7143 | 0.5219
x2 = 0.8186 | 0.5071
x2 = 0.8823 | 0.4985
x2 = 0.9211 | 0.4877
x2 = 0.9661 | 0.4829

CC(C)OC(C)C + CC(C)O
viscosity [mPa·s], 100 kPa
Conditions | x1 = 0.0797 | x1 = 0.1607 | x1 = 0.2387 | x1 = 0.3497 | x1 = 0.4359 | x1 = 0.5553 | x1 = 0.6498 | x1 = 0.7351 | x1 = 0.848 | x1 = 0.9369
293.15 K | 1.78 | 1.32 | 1.02 | 0.755 | 0.635 | 0.52 | 0.458 | 0.418 | 0.38 | 0.35
298.15 K | 1.55 | 1.18 | 0.92 | 0.68 | 0.572 | 0.48 | 0.43 | 0.395 | 0.36 | 0.332
303.15 K | 1.39 | 1.05 | 0.84 | 0.63 | 0.53 | 0.45 | 0.404 | 0.375 | 0.344 | 0.318
308.15 K | 1.21 | 0.94 | 0.75 | 0.56 | 0.48 | 0.417 | 0.379 | 0.356 | 0.328 | 0.305
313.15 K | 1.05 | 0.83 | 0.67 | 0.51 | 0.44 | 0.383 | 0.356 | 0.334 | 0.311 | 0.29
318.15 K | 0.93 | 0.74 | 0.6 | 0.465 | 0.4 | 0.354 | 0.331 | 0.313 | 0.293 | 0.276
323.15 K | 0.82 | 0.647 | 0.522 | 0.41 | 0.361 | 0.327 | 0.309 | 0.295 | 0.276 | 0.26
